Each compound was assayed against T1, SSTR5 (Homo sapiens, UniProt P35346) (assay: Functional assay to assess the inhibition of SSTR5 mediated cyclic AMP production). Conditions: SSTR5 stable CHO cells, 5 μM FSK, Lance cAMP assay kit, eight-point titration.
Format: cell-based, human or mouse
Protocol: Functional Assay to Assess the Inhibition of SSTR5Mediated Cyclic AMP Production:
Target sequence in this assay (P35346 whole entry): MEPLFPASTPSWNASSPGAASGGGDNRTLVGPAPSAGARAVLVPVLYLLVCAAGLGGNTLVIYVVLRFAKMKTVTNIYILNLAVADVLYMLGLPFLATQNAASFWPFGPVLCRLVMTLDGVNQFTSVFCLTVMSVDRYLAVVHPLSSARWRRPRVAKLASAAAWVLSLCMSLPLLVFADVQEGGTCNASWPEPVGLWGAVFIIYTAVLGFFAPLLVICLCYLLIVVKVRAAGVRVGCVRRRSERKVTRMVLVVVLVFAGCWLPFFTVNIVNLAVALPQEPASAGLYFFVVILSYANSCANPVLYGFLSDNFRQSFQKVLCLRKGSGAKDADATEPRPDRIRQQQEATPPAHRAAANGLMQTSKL
The effects of compounds that bind to human and murine SSTR5 with various affinities on the functional activity of the receptor were assessed by measuring cAMP production in the presence of Forskolin (FSK) alone or FSK plus SS-28 in SSTR5 expressing CHO cells. FSK acts to induce cAMP production in these cells by activating adenylate cyclases, whereas SS-28 suppresses cAMP production in the SSTR5 stable cells by binding to SSTR5 and the subsequent inhibition of adenylate cyclases via an alpha subunit of […] (Gαi).
To measure the agonism activity of the compounds, human or mouse SSTR5 stable CHO cells were pre-incubated with the compounds for 15 min, followed by a one-hour incubation of the cells with 5 μM FSK (in the continuous presence of the compounds). The amount of cAMP produced during the incubation was quantified with the Lance cAMP assay kit (PerkinElmer, CA) according to the manufacturer's instruction, as well as, an IC50 value was obtained by an eight-point titration.

| IC50 [nM] | Structure (SMILES) |
| --- | --- |
| 137 | CCOc1cc(CN2CC[C@H]3C(NC(=O)c4ccc5[nH]c(C)nc5c4)CC[C@H]32)cc(OCC)c1-c1ccc(F)cc1 (stereo partly shown) [Example 69] |
| 32.6 | CCOc1cc(CN2CC[C@H]3C(NC(=O)c4cccc(C)c4)CC[C@H]32)cc(OCC)c1-c1ccc(F)cc1 (stereo in doubt) [Example 63] |
| 386 | CCOc1cc(CN2CC[C@H]3C(NC(=O)c4cncnc4)CC[C@H]32)cc(OCC)c1-c1ccc(F)cc1 (stereo partly shown) [Example 75] |
| 85.7 | CCOc1cc(CN2CC[C@H]3C(NC(=O)Nc4cccc(C)c4)CC[C@H]32)cc(OCC)c1-c1ccc(F)cc1 (stereo partly shown) [Example 90] |
| 70.1 | CCOc1cc(CN2CC[C@H]3C(NC(=O)c4cccc(C)c4)CC[C@H]32)cc(OCC)c1-c1ccc(F)cc1 (stereo in doubt) [Example 81] |
| 32.4 | CCOc1cc(CN2CC[C@H]3C(NC(=O)OCc4ccccc4)CC[C@H]32)cc(OCC)c1-c1ccc(F)cc1 (stereo partly shown) [Example 97] |
| 263 | CCOc1cc(CN2CC[C@H]3C(NS(=O)(=O)c4cccc(C)c4)CC[C@H]32)cc(OCC)c1-c1ccc(F)cc1 (stereo partly shown) [Example 101] |
| 46.2 | CCOc1cc(CN2CC[C@H]3C(NC(=O)c4ccc(C)nc4)CC[C@H]32)cc(OCC)c1-c1ccc(F)cc1 (stereo partly shown) [Example 60] |

The next lines start with the compound.

| Structure (SMILES) | IC50 [nM] |
| --- | --- |
| CCOc1cc(CN2CC[C@H]3C(Nc4nc5ccc(C(=O)O)cc5o4)CC[C@H]32)cc(OCC)c1-c1ccc(F)cc1 (stereo partly shown) [Example 79] | 5.21 |
| CCOc1cc(CN2CC[C@H]3C(NC(=O)c4cnc5cc(Cl)ccc5c4O)CC[C@H]32)cc(OCC)c1-c1ccc(F)cc1 (stereo partly shown) [Example 61] | 122 |
| CCOc1cc(CN2CC[C@H]3C(Nc4nc5ccc(F)cc5o4)CC[C@H]32)cc(OCC)c1-c1ccc(F)cc1 (stereo partly shown) [Example 83] | 252 |
| CCOc1cc(CN2CC[C@H]3C(NC(=O)c4ccc5c(c4)nnn5C(C)C)CC[C@H]32)cc(OCC)c1-c1ccc(F)cc1 (stereo partly shown) [Example 72] | 59.5 |
| Cc1cncc(C(=O)N[C@H]2CC[C@@H]3[C@H]2CCN3Cc2cccc(-c3ccccc3)c2)c1 [Example 19] | 1220 |
| CCOc1cc(CN2CC[C@H]3C(Nc4nc5cc(S(=O)(=O)/N=C/N(C)C)ccc5o4)CC[C@H]32)cc(OCC)c1-c1ccc(F)cc1 (stereo partly shown) [Example 100] | 38.7 |

The compounds below were run against T1, SSTR5 (assay: SSTR5 binding (R5 Bnd)). Conditions: not given.
Target sequence in this assay (P35346 whole entry, species assumed): as the sequence (P35346 whole entry) above

| IC50 [nM] | Structure (SMILES) |
| --- | --- |
| 53.5 | CCOc1cc(CN2CC[C@H]3C(NC(=O)c4ccc5[nH]c(C)nc5c4)CC[C@H]32)cc(OCC)c1-c1ccc(F)cc1 (stereo partly shown) [Example 69] |
| 1.72 | CCOc1cc(CN2CC[C@H]3C(NC(=O)c4cccc(C)c4)CC[C@H]32)cc(OCC)c1-c1ccc(F)cc1 (stereo in doubt) [Example 63] |
| 148 | CCOc1cc(CN2CC[C@H]3C(NC(=O)c4cncnc4)CC[C@H]32)cc(OCC)c1-c1ccc(F)cc1 (stereo partly shown) [Example 75] |
| 4.99 | CCOc1cc(CN2CC[C@H]3C(NC(=O)Nc4cccc(C)c4)CC[C@H]32)cc(OCC)c1-c1ccc(F)cc1 (stereo partly shown) [Example 90] |
| 5.01 | CCOc1cc(CN2CC[C@H]3C(NC(=O)c4cccc(C)c4)CC[C@H]32)cc(OCC)c1-c1ccc(F)cc1 (stereo in doubt) [Example 81] |
| 1.44 | CCOc1cc(CN2CC[C@H]3C(NC(=O)OCc4ccccc4)CC[C@H]32)cc(OCC)c1-c1ccc(F)cc1 (stereo partly shown) [Example 97] |
| 12.1 | CCOc1cc(CN2CC[C@H]3C(NS(=O)(=O)c4cccc(C)c4)CC[C@H]32)cc(OCC)c1-c1ccc(F)cc1 (stereo partly shown) [Example 101] |
| 5.45 | CCOc1cc(CN2CC[C@H]3C(NC(=O)c4ccc(C)nc4)CC[C@H]32)cc(OCC)c1-c1ccc(F)cc1 (stereo partly shown) [Example 60] |

Continued, compound first:

| Structure (SMILES) | IC50 [nM] |
| --- | --- |
| CCOc1cc(CN2CC[C@H]3C(Nc4nc5ccc(C(=O)O)cc5o4)CC[C@H]32)cc(OCC)c1-c1ccc(F)cc1 (stereo partly shown) [Example 79] | 1.29 |
| CCOc1cc(CN2CC[C@H]3C(NC(=O)c4cnc5cc(Cl)ccc5c4O)CC[C@H]32)cc(OCC)c1-c1ccc(F)cc1 (stereo partly shown) [Example 61] | 15.8 |
| CCOc1cc(CN2CC[C@H]3C(Nc4nc5ccc(F)cc5o4)CC[C@H]32)cc(OCC)c1-c1ccc(F)cc1 (stereo partly shown) [Example 83] | 7.47 |
| CCOc1cc(CN2CC[C@H]3C(NC(=O)c4ccc5c(c4)nnn5C(C)C)CC[C@H]32)cc(OCC)c1-c1ccc(F)cc1 (stereo partly shown) [Example 72] | 4.65 |
| Cc1cncc(C(=O)N[C@H]2CC[C@@H]3[C@H]2CCN3Cc2cccc(-c3ccccc3)c2)c1 [Example 19] | 124 |
| CCOc1cc(CN2CC[C@H]3C(Nc4nc5cc(S(=O)(=O)/N=C/N(C)C)ccc5o4)CC[C@H]32)cc(OCC)c1-c1ccc(F)cc1 (stereo partly shown) [Example 100] | 2.07 |

Reference: patent publication US8759539B2, “Substituted bicyclic amines for the treatment of diabetes” (Merck Sharp & Dohme Corp., priority 2008, dated 2014)
